Test results reported in ChEMBL document CHEMBL1144625, “A new platinum complex of triazine demonstrates G1 arrest with novel biological profile in human breast cancer cell line, MDA-MB-468” (Bioorg Med Chem Lett, 2007).

tested on: MDA-MB-468; test: Antiproliferative activity against MDA-MB-468 cells by MTT assay; assay type: functional, cell-based; details: Homo sapiens

| IC50 [µM] | SMILES |
| --- | --- |
| > 100 | c1ccc(Sc2nc(N3CCSCC3)nc(N3CCSCC3)n2)nc1 |
| > 100 | c1ccc(Sc2nc(N3CCOCC3)nc(N3CCOCC3)n2)nc1 |

| SMILES | IC50 [µM] |
| --- | --- |
| c1ccc(Sc2nc(N3CC3)nc(N3CC3)n2)nc1 | > 100 |
